From patent publication US7601333B2, “Use of a tetrapeptide AcSDKP (SEQ ID No. 1) analog resistant to the angiotensin I converting enzyme for measuring glomerular filtration rate in a human or an animal and kit containing same” (Assistance Publique-Hopitaux de Paris, priority 2003, dated 2009)
Where two headings read alike, the source gives them in different places. Residues, ends and D or L forms follow the SMILES beside them.

Columns and labels:
ACE (rat lung) = system: T1, ACE (rat lung); experiment: In vitro degradation in the presence of rat lung ACE; assay type: in vitro ADME; conditions: ground rat lung material (rat lung ACE), peptide 100 nM, ground rat lung material 0.1 mg/ml, pH 7.5, read-out: percentage of peptide assayed relative to the control; for remaining at 1 h, 100 nM: T60 min; for remaining at 2 h, 100 nM: T120 min; for remaining at 4 h, 100 nM: T240 min; for remaining at 0.5 h, 100 nM: T30 min
T1 construct: incubated with ground rat lung material (at 0.1 mg/ml); from tissue; host or cells: rat lung (ground material)
Experimental: (§1) The peptides (100 nM) were incubated with ground rat lung material (at 0.1 mg/ml) or human converting enzyme (5 mU final concentration) in the presence or absence of captopril (10 μM final concentration) in 0.1 M Tris/HCl buffer+0.3 mM NaCl, pH=7.5. A control comprising only the peptides in the presence of 0.1 M Tris/HCl buffer+0.3 mM NaCl, pH=7.5, was carried out.
(§2) A methanol extraction was carried out in order to stop the reaction. At each time, the concentration of the nondegraded peptide was measured by enzyme immunoassay.
(§3) The results were expressed as percentage of peptide assayed relative to the control for each sample time.

rat lung ACE = molecular target: T2, rat lung ACE (Rattus norvegicus, UniProt P47820); experiment: as above; assay type: in vitro ADME; conditions: for percentage of peptide assayed relative to the control: peptide 100 nM, ground rat lung material 0.1 mg/ml, pH 7.5
T2 construct: incubated with ground rat lung material (at 0.1 mg/ml); from tissue; host or cells: rat lung (ground material)
T2 sequence (P47820 36-1313): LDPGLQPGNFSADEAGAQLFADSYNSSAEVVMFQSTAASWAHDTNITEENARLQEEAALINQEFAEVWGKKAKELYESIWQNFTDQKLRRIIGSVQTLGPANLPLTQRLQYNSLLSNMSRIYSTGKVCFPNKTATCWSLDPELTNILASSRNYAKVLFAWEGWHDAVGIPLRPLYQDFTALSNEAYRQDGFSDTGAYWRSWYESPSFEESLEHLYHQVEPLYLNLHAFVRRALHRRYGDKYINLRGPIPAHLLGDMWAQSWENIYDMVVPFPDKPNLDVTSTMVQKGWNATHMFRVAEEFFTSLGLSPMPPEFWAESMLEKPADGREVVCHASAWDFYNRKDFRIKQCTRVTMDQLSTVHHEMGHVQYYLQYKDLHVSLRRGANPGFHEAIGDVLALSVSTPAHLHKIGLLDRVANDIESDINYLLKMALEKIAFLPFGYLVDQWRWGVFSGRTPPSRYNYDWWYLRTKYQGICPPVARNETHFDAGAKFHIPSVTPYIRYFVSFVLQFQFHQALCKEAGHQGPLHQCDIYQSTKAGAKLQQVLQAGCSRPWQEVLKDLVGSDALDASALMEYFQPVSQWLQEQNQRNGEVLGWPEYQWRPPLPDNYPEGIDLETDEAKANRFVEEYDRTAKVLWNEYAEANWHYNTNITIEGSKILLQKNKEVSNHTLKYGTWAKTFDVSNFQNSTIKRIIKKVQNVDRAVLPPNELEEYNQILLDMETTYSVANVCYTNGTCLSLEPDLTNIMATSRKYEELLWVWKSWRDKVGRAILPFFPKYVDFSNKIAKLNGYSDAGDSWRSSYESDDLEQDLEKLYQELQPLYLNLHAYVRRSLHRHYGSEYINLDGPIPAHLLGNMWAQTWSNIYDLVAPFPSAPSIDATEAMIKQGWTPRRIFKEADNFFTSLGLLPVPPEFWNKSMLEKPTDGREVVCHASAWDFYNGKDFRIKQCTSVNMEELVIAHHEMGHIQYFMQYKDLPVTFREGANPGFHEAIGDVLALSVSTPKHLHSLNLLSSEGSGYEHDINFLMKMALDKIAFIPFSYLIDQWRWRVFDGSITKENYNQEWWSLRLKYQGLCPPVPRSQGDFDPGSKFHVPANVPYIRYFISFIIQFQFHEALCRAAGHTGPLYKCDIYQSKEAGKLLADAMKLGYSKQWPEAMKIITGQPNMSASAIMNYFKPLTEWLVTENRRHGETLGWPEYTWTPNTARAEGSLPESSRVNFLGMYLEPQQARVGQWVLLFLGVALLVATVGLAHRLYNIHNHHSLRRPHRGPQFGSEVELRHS
Experimental: as §1, §2, §3

[1] = cited from earlier work
[2] = molecular target: T3, ACE present in mouse plasma (Mus musculus, UniProt P09470); conditions: cited from earlier work
T3 construct: host or cells: mouse plasma
T3 sequence (P09470 35-1237 limits assumed): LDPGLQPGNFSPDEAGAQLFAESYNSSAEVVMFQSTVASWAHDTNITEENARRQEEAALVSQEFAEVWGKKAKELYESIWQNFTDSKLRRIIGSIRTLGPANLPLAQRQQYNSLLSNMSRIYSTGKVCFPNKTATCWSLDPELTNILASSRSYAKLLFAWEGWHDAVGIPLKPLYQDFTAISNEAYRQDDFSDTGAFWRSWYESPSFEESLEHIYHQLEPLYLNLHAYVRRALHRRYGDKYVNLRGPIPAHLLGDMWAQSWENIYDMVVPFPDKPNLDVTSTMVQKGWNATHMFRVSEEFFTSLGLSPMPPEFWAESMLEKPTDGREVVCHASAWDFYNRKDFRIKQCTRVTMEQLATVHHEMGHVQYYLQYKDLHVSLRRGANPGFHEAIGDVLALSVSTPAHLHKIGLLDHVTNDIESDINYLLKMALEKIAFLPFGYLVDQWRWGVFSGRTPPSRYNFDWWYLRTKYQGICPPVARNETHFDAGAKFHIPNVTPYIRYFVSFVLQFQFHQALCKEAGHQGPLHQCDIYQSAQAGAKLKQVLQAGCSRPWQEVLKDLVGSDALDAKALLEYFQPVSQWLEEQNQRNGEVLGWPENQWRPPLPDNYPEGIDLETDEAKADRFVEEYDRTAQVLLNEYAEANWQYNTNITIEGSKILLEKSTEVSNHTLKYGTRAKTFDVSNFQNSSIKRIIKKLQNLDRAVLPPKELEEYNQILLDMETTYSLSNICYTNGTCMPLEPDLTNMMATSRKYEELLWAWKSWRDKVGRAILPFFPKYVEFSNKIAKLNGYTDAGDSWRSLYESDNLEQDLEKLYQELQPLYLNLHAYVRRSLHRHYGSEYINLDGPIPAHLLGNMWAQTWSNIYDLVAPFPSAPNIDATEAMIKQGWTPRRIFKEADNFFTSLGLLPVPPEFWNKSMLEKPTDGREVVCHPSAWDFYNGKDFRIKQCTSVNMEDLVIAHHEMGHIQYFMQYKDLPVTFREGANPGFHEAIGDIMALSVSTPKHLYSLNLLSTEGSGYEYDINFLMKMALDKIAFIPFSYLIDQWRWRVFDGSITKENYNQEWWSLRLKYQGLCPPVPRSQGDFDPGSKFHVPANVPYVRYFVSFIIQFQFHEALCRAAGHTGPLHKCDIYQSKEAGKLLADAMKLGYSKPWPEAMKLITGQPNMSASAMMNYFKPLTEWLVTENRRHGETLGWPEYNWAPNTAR

[3] = with captopril 10 μM, + captopril 10 μM

concentrations found (rat lung ACE; in vitro, relative to control) [%]	percentage of peptide assayed relative to the control (rat lung ACE; T60 min, + captopril 10 μM) [%]	percentage of peptide assayed relative to the control (rat lung ACE; T240 min, + captopril 10 μM) [%]	percentage of peptide assayed relative to the control (rat lung ACE; T240 min, without captopril) [%]	Structure (SMILES)	remaining at 1 h, 100 nM (ACE (rat lung); [3]) [%]	remaining at 2 h, 100 nM (ACE (rat lung); [3]) [%]	remaining at 4 h, 100 nM (ACE (rat lung); [3]) [%]	remaining at 0.5 h, 100 nM (ACE (rat lung); without captopril) [%]	remaining at 1 h, 100 nM (ACE (rat lung); without captopril) [%]	remaining at 2 h, 100 nM (ACE (rat lung); without captopril) [%]	remaining at 4 h, 100 nM (ACE (rat lung); without captopril) [%]	degradation by rat ACE (rat lung ACE; in vitro)	percentage of peptide assayed relative to the control (rat lung ACE; T30 min, + captopril 10 μM) [%]	concentration in the plasma, minimum value ([1]; between two 50 mg doses of captopril) [nM]	urinary clearance relative to endogenous creatinine clearance ([1]; with an ACE inhibitor) [%]	degradation by the ACE present in mouse plasma [2]
–	–	–	–	CC(=O)N[C@@H](CO)C(=O)N[C@@H](CC(=O)O)C(=O)N[C@@H](CCCCN)C(=O)N1CCC[C@H]1C(=O)O [AcSDKP, N-acetyl-Ser-Asp-Lys-Pro] (Ac-SDKP-OH; C-terminus assumed)	111	75	89	28	9	5	5	degraded	129	2	69±27	–
100±25	65	136	126	CC(=O)N[C@@H](CO)C(=O)N[C@@H](CC(=O)O)C(=O)N[C@@H](CCCCN)C(=O)N1CCC[C@H]1C(N)=O [AcSDKP-NH2, N-acetyl-Ser-Asp-Lys-Pro-NH2] (Ac-SDKP-NH2)	–	109	–	100	65	95	–	does not appear to be degraded	125	–	–	not degraded
